Source: PMC9331544, “Molecular Physicochemical Properties of Selected Pesticides as Predictive Factors for Oxidative Stress and Apoptosis-Dependent Cell Death in Caco-2 and HepG2 Cells” (International Journal of Molecular Sciences, 2022)
Read-outs that look alike come from different tables or passages of the source.

What was measured:
[1] = test system: Caco-2 cells
From the text: (§1) Given the role of mitochondria in both oxidative stress and cell death (apoptosis), we evaluated the mitochondrial membrane potential (MMP) using the JC-1 probe (see methods for details). This probe accumulates in the mitochondria in the form of J-aggregates when in normal mitochondrial conditions (polarized) and presents red fluorescence. By contrast, in unhealthy cells, when depolarization occurs, JC-1 enters the mitochondria in lower concentrations forming monomers inducing a fluorescence shift to green fluorescence, thus the loss of MMP is observed through flow cytometry as a reduction in red (FL2) and an increase in green (FL1) fluorescence, or as a reduction in red/green (FL2/FL1) fluorescence ratio [45, 46].
(§2) Pesticide-induced oxidative stress and apoptosis/necrosis events were analysed by flow cytometry. For this, one colour and two-colour flow cytometry assays were performed, using a BD Accuri™ C6 cytometer (Franklin Lakes, NJ, USA) equipment for data acquisition. Each assay was performed at least in triplicate (n = 3) and 5000 gated events were collected from each sample. Data analysis was performed using BD Accuri™ C6 Software, version 1.0.264.21 supplied by Becton Dickinson (Franklin Lakes, NJ, USA).
(§3) Caco-2 and HepG2 cells (handled as described in Section 3.2.1) were seeded in 12-well microplates (at 5 × 10^4 cells/mL density; 750 µL/well), and allowed to adhere and stabilize for 48 h in the incubator. […] Negative control cells (non-exposed cells) were included in each assay. After a 24 h incubation with test solutions, cells were washed with phosphate buffer saline (PBS) solution and then detached from the microplates (as in Section 3.2.1) and placed in centrifuge tubes and centrifuged (5 min, 3000 rpm, bench micro-centrifuge). After eliminating the supernatant, cells were washed in PBS solution through another centrifuge cycle. Then cells were divided before being incubated with the specific markers to assess oxidative stress markers and cell apoptosis/necrosis.
(§4) Mitochondrial membrane potential was analysed using JC-1 probe following the procedures as described by the manufacturer. Caco-2 and HepG2 cells suspended in PBS were centrifuged (5 min, 3000 rpm, bench micro-centrifuge), the supernatant was removed and 200 μL of JC-1 solution (2 μM; diluted in FBS-free culture media) was added to each sample. The samples were incubated for 20 min at 37 °C (in a CO2 incubator) and then analysed by flow cytometry. Negative control, non-exposed, and positive control cells exposed to the protonophore FCCP (5 μM; carbonyl cyanide p-trifluoromethoxyphenylhydrazone) were performed in each set of experiments.

[2] = test system: HepG2 cells; details: for HepG2 FL2/FL1 ratio: mean ± SD
From the text: as §1, §2, §3, §4

[3] = test system: Caco-2 cells; assay: Glutathione (GSH) content, Mercury Orange, flow cytometry; format: cell-based, human; details: Caco-2, 24 h, tested concentrations
Method: (§5) To assess GSH content, cells re-suspended in PBS (see Section 3.3.1) were incubated with 40 μM Mercury Orange (1-(4-chloromercuryphenyl-azo-2-naphtol) for 5 min (in the dark, room temperature), as described by du Plessis, et al..

[4] = test system: HepG2 cells; assay: as above; format: cell-based, human; details: HepG2, 24 h, tested concentrations
Method: as §5

[5] = test system: HepG2 cells; details: occupational concentrations; ref [29]; cited from earlier work
[6] = test system: Caco-2 cells; assay: Intracellular ROS content, DCFDA, flow cytometry; format: cell-based, human; details: for change in ROS content vs control (in words): Caco-2, 24 h, tested concentrations
Method: (§6) To assess pesticides-induced oxidative stress, the intracellular content in reactive oxygen species (ROS), content in glutathione (GSH), and lipid peroxidation was quantified by flow cytometry, following the methods described by Domínguez-Perles, et al. and Queiroz, et al.. Briefly, to assess ROS content, cells re-suspended in PBS (from Section 3.3.1) were centrifuged (5 min, 3000 rpm, bench micro-centrifuge) and, after eliminating the supernatant, 200 μL of 10 µM DCFDA solution (prepared in FBS-free DMEM) was added to each sample. After a 45 min incubation at 37 °C (in the dark, in an incubator), cells were centrifuged to remove excess of probe and re-suspended in PBS. Finally, 5 μL of propidium iodide (PI; 50 μg/mL) was added to each sample 3 min before flow cytometry acquisition.

[7] = test system: HepG2 cells; assay: Intracellular ROS content, DCFDA, flow cytometry; format: cell-based, human; details: for change in ROS content vs control (in words): HepG2, 24 h, tested concentrations
Method: as §6

[8] = test system: Caco-2 cells; assay: Apoptosis/necrosis, Annexin-V-FITC/PI double staining, flow cytometry; format: cell-based, human; details: Caco-2, 24 h, tested concentrations; listed as GLY
Method: (§7) The samples where then incubated for 20 min at room temperature. After this period, 5 μL of propidium iodide (PI; at 50 μg/mL) solution were added to each sample 3 min before acquisition.

[9] = test system: HepG2 cells; assay: as above; format: cell-based, human; details: HepG2, 24 h, tested concentrations; listed as GLY
Method: as §7

[10] = test system: Caco-2 cells; assay: Alamar Blue cell viability/cytotoxicity assay; format: cell-based, human; details: mean ± SD (n = 4), read-out: IC50 of pesticide-induced cytotoxicity
Method: (§8) In this study, to assess the cytotoxic activity of GLY, IMD, and IMZ, human epithelial colorectal adenocarcinoma (Caco-2), cell lines service (CLS), (Eppelheim, Germany) and human hepatocellular carcinoma (HepG2) (ATCC, Rockville, Maryland, USA) cells were used. Cells were cultured in complete culture media (Dulbecco’s Modified Eagle Media (DMEM), supplemented with 1 mM L-glutamine, 10% (v/v) foetal bovine serum (FBS), and antibiotics (penicillin at 100 U/mL, and streptomycin at 100 μg/mL)) and maintained at 5% CO2/95% air; 37 °C, controlled humidity, in an incubator. Cells were grown in T25 culture flasks to near confluence. Then, these adherent cells were treated with trypsin (trypsin-EDTA), for detachment and subculture, which was stopped using complete culture medium (1:1, trypsin:culture media) as soon as cells were detached (about 6 and 8 minutes of trypsin treatment for HepG2 and Caco-2 cells, respectively). Detached cells were gently re-suspended with a Pasteur pipette and then a sample was counted using an automated cell counter (TC10™, BIORAD, Portugal). A suspension of cells in fresh culture media, at 5 × 10^4 cells/mL was prepared to seed into 96-well microplates (100 µL/well). After seeding, cells were placed in the incubator for 48 h (to adhere and stabilize) before being used, for other details see [66, 67].
(§9) Cell viability was assessed using the Alamar Blue® (AB) assay, after exposure to the pesticides. In summary, cells seeded into 96-well microplates were subjected to various concentrations of the pesticides (GLY: 0–1 mM; IMD: 0–1 mM; IMZ: 0–0.3 mM). To prepare the test solutions, the appropriate volume of the pesticide stock solution was diluted in FBS-free culture media just before its application to the cells. Stock solution of GLY was prepared in water (at 40 mM), and stock solutions of IMD and IMZ were prepared in DMSO (at 20 mM). After 24 h or 48 h of exposure, the test solutions were removed and the Alamar Blue solution (100 µL/well; 10% (v/v) in FBS-free medium) was immediately added to the cells, followed by a further 5 h incubation. The absorbance was then read at 570 and 620 nm using a microplate reader (Multiskan EX; MTX Lab Systems, Inc., Bradenton, FL, USA) and the percentage of the AB reduction was calculated according to the manufacturer’s instructions, as described before. Cell viability, at each condition, was calculated and expressed as percentage of control cells (non-exposed cells).
(§10) The concentrations needed to reduce cell viability by 50% (IC50) were calculated from three independent experiments (each one performed in quadruplicates), as described.

[11] = test system: HepG2 cells; assay: Alamar Blue cell viability/cytotoxicity assay; format: cell-based, human; details: mean ± SD (n = 4), read-out: IC50 of pesticide-induced cytotoxicity
Method: as §8, §9, §10

[12] = Alamar Blue cell viability/cytotoxicity assay; format: cell-based, human; details: human
Method: as §8, §9, §10

[13] = test system: Caco-2 cells; assay: Lipid peroxidation, DHPE-FITC probe, flow cytometry; format: cell-based, human
Method: (§11) Lipid peroxidation was evaluated using the DHPE-FITC probe. Cells re-suspended in PBS (see Section 3.3.1) were incubated with 20 μM DHPE-FITC, for 20 min in the dark at room temperature (as describe).

[14] = test system: HepG2 cells; assay: as above; format: cell-based, human
Method: as §11

[15] = test system: HepG2 cells; design: method as in PMID 34635006; details: HepG2, 500 μM, 24 h; ref [31]; cited from earlier work
[16] = test system: L-929 cells (fibroblast cell line); design: method as in PMID 33177931; details: 500 μM, ref [33]; cited from earlier work
[17] = ref [47],[48],[49],[50]; cited from earlier work
[18] = HepG2, FCCP positive control (5 μM)
[19] = IC50 of pesticide-induced cytotoxicity

## N#CC(C#N)=NNc1ccc(OC(F)(F)F)cc1 [FCCP, carbonyl cyanide p-trifluoromethoxyphenylhydrazone, reference compound]
[1]; Caco-2, FCCP positive control (5 μM)
  FL2/FL1 ratio reduction (% of control): 93.04±0.93 % of control
[1]; Caco-2, FCCP positive control (5 μM), mean ± SD
  Caco-2 FL2/FL1 ratio: 0.06±0.02
[2]; [18]
  FL2/FL1 ratio reduction (% of control): 79.87±4.12 % of control
  HepG2 FL2/FL1 ratio: 0.04±0.01

## O=C(O)CNCP(=O)(O)O [Glyphosate, N-phosphonomethyl-glycine]
[3]
  change in GSH content vs control (in words): did not show GSH levels different from control cells
[4]
  change in GSH content vs control (in words): initial decrease in GSH content
[5]
  HepG2 cell viability (in words): no reduction in HepG2 cell viability
[6]; listed as GLY
  change in ROS content vs control (in words): control-like ROS levels
[7]; listed as GLY
  change in ROS content vs control (in words): control-like ROS levels
[8]
  apoptosis/necrosis induction (in words): did not produce significant changes
[9]
  apoptosis/necrosis induction (in words): did not induce significant changes on cell population distribution
[1]; Caco-2, 24 h, tested concentrations, listed as GLY
  change in mitochondrial membrane potential (in words): did not induce significant changes on MMP
[10]; Caco-2, 24 h exposure
  IC50: > 1000 µM
[10]; Caco-2, 48 h exposure
  IC50: > 1000 µM
[11]; HepG2, 24 h exposure
  IC50: > 1000 µM
[11]; HepG2, 48 h exposure
  IC50: > 1000 µM
[12]; Caco-2, 24 h, read-out: IC50 (cytotoxicity)
  IC50 at 24 h: > 1000 µM
[12]; Caco-2, 48 h, read-out: IC50 (cytotoxicity)
  IC50 at 48 h: > 1000 µM
[12]; HepG2, 24 h, read-out: IC50 (cytotoxicity)
  IC50 at 24 h: > 1000 µM
[12]; HepG2, 48 h, read-out: IC50 (cytotoxicity)
  IC50 at 48 h: > 1000 µM
[13]; Caco-2, 24 h, tested concentrations
  lipid peroxidation (LP) vs control (in words): did not produce significant LP
[14]; HepG2, 24 h, tested concentrations
  lipid peroxidation (LP) vs control (in words): did not produce significant LP

## O=[N+]([O-])NC1=NCCN1Cc1ccc(Cl)nc1 [Imidacloprid, imidacloprid]
[3]
  change in GSH content vs control (in words): increased GSH levels
[4]
  change in GSH content vs control (in words): increased GSH levels
[6]; Caco-2, 750 μM, 24 h
  increase in ROS content compared with control: 1.42 fold
[6]; listed as IMD
  change in ROS content vs control (in words): significant (p < 0.05) increase in ROS content
[7]; HepG2, 500 μM, 24 h
  increase in ROS content compared with control: 1.59 fold
[7]; listed as IMD
  change in ROS content vs control (in words): significant (p < 0.05) increase in ROS content
[15]
  ROS content (in words): doubled ROS content
[1]; Caco-2, 500 μM, 24 h
  FL2/FL1 ratio reduction (% of control): 21.36±0.05 % of control
[1]; Caco-2, 750 μM, 24 h
  FL2/FL1 ratio reduction (% of control): 17.70±2.49 % of control
[2]
  change in mitochondrial membrane potential (in words): Depolarized MMP
[2]; HepG2, 100 μM, 24 h
  FL2/FL1 ratio reduction (% of control): 23.79±1.79 % of control
  HepG2 FL2/FL1 ratio: 0.17±0.01
[2]; HepG2, 250 μM, 24 h
  FL2/FL1 ratio reduction (% of control): 27.49±1.48 % of control
  HepG2 FL2/FL1 ratio: 0.16±0.02
[2]; HepG2, 500 μM, 24 h
  FL2/FL1 ratio reduction (% of control): 19.93±1.29 % of control
  HepG2 FL2/FL1 ratio: 0.18±0.01
[16]
  LDH release increase: 50%
[17]
  H-bond (donor count): 1
  H-donor (acceptor count): 4
[12]
  IC50 at 24 h: 624 ± 24 µM
  IC50 at 48 h: 620 ± 11 µM
[12]; [19]
  IC50 at 24 h: > 1000 µM
  IC50 at 48 h: 832 ± 30 µM
[13]
  lipid peroxidation (LP) vs control (in words): induced significant LP
[14]
  lipid peroxidation (LP) vs control (in words): not statistically significant
